The subject of one series is PC-3 cells. In words: Biostability: EPR of conditioned media after exposure to cells. The series is classed as in vitro ADME. The settings on record: after 96 hours of exposure to PC-3 cells vs media without cells. Here is the method:
PC-3 cells were seeded in tissue culture flasks (surface area ˜80 cm2). The cells were allowed to attach overnight. Following this, the cells were then treated with the desired concentration of CTMIO or DCTEIO (Compound 1) or vehicle (DMSO alone) i.e. 12 mL of media containing different nitroxide or vehicle was added to each flask. 5 mL of conditioned media (i.e. treatment media that had been incubated with the cells) were removed at 24 h and 96 h. At the 96 h time point, cells in the tissue culture flask were ˜100% confluent (i.e. the surface of the flask was covered by a monolayer of cells). The conditioned media that was removed from the flasks was placed in a falcon and centrifuged at 4° C. to remove any cellular debris that might have been present. The supernatant was then transferred to a new tube and the lid parafilmed to make it as airtight as possible. The tubes of conditioned media were stored at −20° C. until Electron Paramagnetic Resonance (EPR) analysis. […] The samples were run at X-band on a Bruker ELEXSYS E 580 FT/CW X-Band spectrometer at room temperature.

The nature of series [1]: Log P by shake flask method (octanol/water, UV/vis at 230 nm). In kind it is physicochemical. Here is the method:
The solubility and permeability of CTMIO and DCTEIO (Compound 1) were assessed using the shake flask method and UV/vis spectroscopy to measure distribution of the solute as follows:
A sample of octanol containing DCTEIO (3.34 mg, 1 mM) was added to a separating funnel with 10 mL water. The separating funnel was shaken for 5 minutes and the mixture was allowed to separate for 16 hours. Each phase (0.5 mL) was diluted with 5 mL of like solvent, water phase diluted with water and n-octanol phase diluted with n-octanol. This protocol was repeated for CTMIO. The absorbance of each sample was measured by UV/vis spectroscopy at 230 nm. The Log P value was calculated by the following equation: […]

Series [2] concerns cells affected with Ataxia Telangiectasia (A-T). The settings on record: Hosokawa et al. 2004; cited from earlier work.
The subject of a further series is A-T cell line KT. In words: A-T cell survival assay (irradiated cells, Trypan blue count). In kind it is cell-based, human. To be noted: 100 μM nitroxide, at least six hours before irradiation at 4 Gy, counted every 24 hours for 4 days. Here is the method:
Lymphoblastoid Cell Lines (LCL) of A-T cells and standard cells were used, which were incubated and cultured in the standard conditions. The cell lines of both A-T cells and standard cells were initially divided into four batches, the first batch was not irradiated and not exposed to nitroxide, second batch was irradiated in the absence of nitroxide, the third batch was not irradiated but was exposed to the nitroxide, and the last batch was irradiated in the presence of the nitroxide. All four aliquots were taken from the cultured medium and counted to ensure consistent numbers of cells were present in each aliquot used in the assay. In some experiments comparative experiments were performed with the known nitroxide antioxidant CTMIO. Cells that were treated by the nitroxide studied were exposed for at least six hours prior to the irradiation at the lethal dose of 4 Gy. After dilution, the final concentrations of the nitroxides were made to be 100 μM. Previous experiments have shown that nitroxides generally have minimal toxicity at the concentration of 100 μM, but to confirm this, cell growth was monitored in the presence of the nitroxides but without exposure to irradiation. From this it was evident that there was no significant cytotoxicity with any of the compounds studied.
The concentrations of the cell cultures were monitored every 24 hours after irradiation, for four days. This was conducted via a Trypan blue based assay using a bright-line hemacytometer and an optical microscope. Trypan blue solution enables the discrimination of live cells from dead cells, as the dye is completely absorbed by dead cells, but not by live cells. Under a bright-line hemacytometer, a glass slide specially designed to determine cell concentrations, the blue dead cells fade into the background, enabling the selective count of live cells under an optical microscope. […]
Cell survivability was determined by the ratio of cells irradiated to the cells without irradiation. […] Errors were calculated with 95% confidence intervals. […]

For orientation: Log P means the decadic logarithm of the partition coefficient of the neutral form, usually between octanol and water. As to `CC1(C)c2ccc(C(=O)O)cc2C(C)(C)N1[O]` [CTMIO, 5-carboxy-1,1,3,3-tetramethyl-isoindolin-2-yloxyl, reference compound], the “EPR signal strength of the nitroxide (metabolic conversion to the non-radical hydroxylamine)” value in the series with PC-3 cells was “significant reduction in signal strength”. In addition, the lipophilicity (Log P) in series [1] is reported as −0.47. Further, the “protective effect on radiation-induced oxidative stress” value in series [2] is recorded as “protective effect”.
By logP is commonly meant a log measure of how a compound divides between an organic and an aqueous phase. Lower therefore signals lower lipophilicity. On to `CCC1(CC)c2cc(C(=O)O)c(C(=O)O)cc2C(CC)(CC)N1[O]` [Compound (1), 1,1,3,3-Tetraethyl-5,6-dicarboxylisondoline-2-yloxyl], for which, in the series on PC-3 cells, the “EPR signal strength of the nitroxide (metabolic conversion to the non-radical hydroxylamine)” value is on record as “same signal strength”. In addition, the “survival of KT cells in the presence of irradiation” value in the series with A-T cell line KT is listed as “improves survival of KT cells”. In series [1] (n-octanol/water, shake flask, 1 mM), this molecule yielded a logP of 0.57.
`CCC1(CC)c2cc(CO)c(CO)cc2C(CC)(CC)N1[O]` [Compound (2), 5,6-Dihydroxymethyl-1,1,3,3-tetraethylisoindolin-2-yloxyl]: in the series on A-T cell line KT, the “survival of KT cells in the presence of irradiation” value is recorded as “improves survival of KT cells”.
Still for that read-out and setting: the same measure for `CCC1(CC)c2cc(CP(=O)(O)O)c(CP(=O)(O)O)cc2C(CC)(CC)N1[O]` [Compound (3), 5,6-Bis(methylene)diphosphonic acid-1,1,3,3-tetraethylisoindolin-2-yloxyl]: “improves survival of KT cells”.

The record behind these values is patent publication US20110269716A1, “ANTIOXIDANT COMPOUNDS AND METHODS OF THEIR USE” (priority 2008, published 2011).
